Tests used:
Assay in all cases: relative viability (nuclei count vs DMSO), 5 days (fraction); higher = more cells survive
[1] = test system: COR-L23
Outline: (§1)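 Each reported value is a median over duplicate plates. It expresses relative viability: treated-well nuclei count divided by vehicle-well nuclei count. Lung cancer cell lines in 1536-well plates were dosed by pin tool a day after seeding, alone with one drug or with a fixed anchor-drug dose plus five library-drug doses (not always all listed) in √10 steps, and nuclei were counted after 5 days.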

[2] = test system: COR-L 105
Outline: as §1

[3] = test system: NCI-H596
Outline: as §1

[4] = test system: LCLC-103H
Outline: as §1

[5] = test system: NCI-H1651
Outline: as §1

[6] = test system: SK-MES-1
Outline: as §1

[7] = test system: NCI-H1975
Outline: as §1

[8] = test system: PC-14
Outline: as §1

[9] = test system: NCI-H2023
Outline: as §1

[10] = test system: NCI-H650
Outline: as §1

[11] = test system: EPLC-272H
Outline: as §1

[12] = test system: NCI-H1395
Outline: as §1

[13] = test system: CAL-12T
Outline: as §1

[14] = test system: NCI-H1993
Outline: as §1

[15] = test system: NCI-H2170
Outline: as §1

[16] = test system: HOP-62
Outline: as §1

[17] = test system: NCI-H2085
Outline: as §1

[18] = test system: A-427
Outline: as §1

[19] = test system: LXF-289
Outline: as §1

[20] = test system: NCI-H3122
Outline: as §1

[21] = test system: NCI-H2087
Outline: as §1

[22] = test system: NCI-H647
Outline: as §1

[23] = test system: RERF-LC-KJ
Outline: as §1

**Q.** What does the source list for `O=c1[nH]c2ccccc2n1C1CCN(CCCC(c2ccc(F)cc2)c2ccc(F)cc2)CC1` [Pimozide] + Nc1nc2[nH]cc(CCc3ccc(C(=O)N[C@@H](CCC(=O)O)C(=O)O)cc3)c2c(=O)[nH]1 [Pemetrexed] (partner 0.2 µM)?
**A.** relative viability ([1]; first compound 0.08 µM): 0.2; relative viability ([1]; first compound 0.253 µM): 0.192; relative viability ([1]; first compound 0.8 µM): 0.19; relative viability ([1]; first compound 2.53 µM): 0.192; relative viability ([1]; first compound 8 µM): 0.192; relative viability ([2]; first compound 0.08 µM): 0.963; relative viability ([2]; first compound 0.253 µM): 1.11; relative viability ([2]; first compound 0.8 µM): 1.07; relative viability ([2]; first compound 2.53 µM): 1.2; relative viability ([2]; first compound 8 µM): 0.954; relative viability ([3]; first compound 0.08 µM): 0.538; relative viability ([3]; first compound 0.253 µM): 0.487; relative viability ([3]; first compound 0.8 µM): 0.534; relative viability ([3]; first compound 2.53 µM): 0.436; relative viability ([3]; first compound 8 µM): 0.479; relative viability ([4]; first compound 0.08 µM): 0.435; relative viability ([4]; first compound 0.253 µM): 0.425; relative viability ([4]; first compound 0.8 µM): 0.471; relative viability ([4]; first compound 2.53 µM): 0.385; relative viability ([4]; first compound 8 µM): 0.468; relative viability ([5]; first compound 0.08 µM): 0.603; relative viability ([5]; first compound 0.253 µM): 0.487; relative viability ([5]; first compound 0.8 µM): 0.697; relative viability ([5]; first compound 2.53 µM): 0.562; relative viability ([5]; first compound 8 µM): 0.566; relative viability ([6]; first compound 0.08 µM): 0.982; relative viability ([6]; first compound 0.253 µM): 0.861; relative viability ([6]; first compound 0.8 µM): 0.919; relative viability ([6]; first compound 2.53 µM): 0.888; relative viability ([6]; first compound 8 µM): 0.902; relative viability ([7]; first compound 0.08 µM): 0.309; relative viability ([7]; first compound 0.253 µM): 0.261; relative viability ([7]; first compound 0.8 µM): 0.305; relative viability ([7]; first compound 2.53 µM): 0.28; relative viability ([7]; first compound 8 µM): 0.283; relative viability ([8]; first compound 0.253 µM): 0.14; relative viability ([8]; first compound 0.8 µM): 0.14; relative viability ([8]; first compound 2.53 µM): 0.0963; relative viability ([8]; first compound 8 µM): 0.063; relative viability ([9]; first compound 0.08 µM): 0.215; relative viability ([9]; first compound 0.253 µM): 0.231; relative viability ([9]; first compound 0.8 µM): 0.226; relative viability ([9]; first compound 2.53 µM): 0.179; relative viability ([9]; first compound 8 µM): 0.164; relative viability ([10]; first compound 0.08 µM): 0.939; relative viability ([10]; first compound 0.253 µM): 0.936; relative viability ([10]; first compound 0.8 µM): 0.793; relative viability ([10]; first compound 2.53 µM): 0.914; relative viability ([10]; first compound 8 µM): 1.02; relative viability ([11]; first compound 0.08 µM): 0.319; relative viability ([11]; first compound 0.253 µM): 0.285; relative viability ([11]; first compound 0.8 µM): 0.271; relative viability ([11]; first compound 2.53 µM): 0.179; relative viability ([11]; first compound 8 µM): 0.238; relative viability ([12]; first compound 0.08 µM): 0.887; relative viability ([12]; first compound 0.253 µM): 0.825; relative viability ([12]; first compound 0.8 µM): 0.822; relative viability ([12]; first compound 2.53 µM): 0.823; relative viability ([12]; first compound 8 µM): 0.831; relative viability ([13]; first compound 0.08 µM): 1.22; relative viability ([13]; first compound 0.253 µM): 1.22; relative viability ([13]; first compound 0.8 µM): 1.14; relative viability ([13]; first compound 2.53 µM): 1.22; relative viability ([13]; first compound 8 µM): 1.11; relative viability ([14]; first compound 0.08 µM): 0.487; relative viability ([14]; first compound 0.253 µM): 0.548; relative viability ([14]; first compound 0.8 µM): 0.512; relative viability ([14]; first compound 2.53 µM): 0.482; relative viability ([14]; first compound 8 µM): 0.501; relative viability ([15]; first compound 0.08 µM): 0.273; relative viability ([15]; first compound 0.253 µM): 0.242; relative viability ([15]; first compound 0.8 µM): 0.263; relative viability ([15]; first compound 2.53 µM): 0.258; relative viability ([15]; first compound 8 µM): 0.258; relative viability ([16]; first compound 0.08 µM): 0.275; relative viability ([16]; first compound 0.253 µM): 0.362; relative viability ([16]; first compound 2.53 µM): 0.283; relative viability ([16]; first compound 8 µM): 0.284; relative viability ([17]; first compound 0.08 µM): 0.812; relative viability ([17]; first compound 0.253 µM): 1.01; relative viability ([17]; first compound 0.8 µM): 0.745; relative viability ([17]; first compound 2.53 µM): 0.938; relative viability ([17]; first compound 8 µM): 0.735; relative viability ([18]; first compound 0.08 µM): 0.992; relative viability ([18]; first compound 0.253 µM): 0.979; relative viability ([18]; first compound 0.8 µM): 0.928; relative viability ([18]; first compound 2.53 µM): 0.899; relative viability ([18]; first compound 8 µM): 0.845; relative viability ([19]; first compound 0.08 µM): 0.859; relative viability ([19]; first compound 0.253 µM): 0.873; relative viability ([19]; first compound 0.8 µM): 0.859; relative viability ([19]; first compound 2.53 µM): 0.869; relative viability ([19]; first compound 8 µM): 0.874; relative viability ([20]; first compound 0.08 µM): 0.238; relative viability ([20]; first compound 0.253 µM): 0.206; relative viability ([20]; first compound 0.8 µM): 0.178; relative viability ([20]; first compound 2.53 µM): 0.195; relative viability ([20]; first compound 8 µM): 0.2; relative viability ([21]; first compound 0.08 µM): 0.655; relative viability ([21]; first compound 0.253 µM): 0.608; relative viability ([21]; first compound 2.53 µM): 0.616; relative viability ([21]; first compound 8 µM): 0.642; relative viability ([22]; first compound 0.08 µM): 0.186; relative viability ([22]; first compound 0.253 µM): 0.188; relative viability ([22]; first compound 0.8 µM): 0.175; relative viability ([22]; first compound 2.53 µM): 0.2; relative viability ([22]; first compound 8 µM): 0.128; relative viability ([23]; first compound 0.08 µM): 0.452; relative viability ([23]; first compound 0.253 µM): 0.47; relative viability ([23]; first compound 0.8 µM): 0.466; relative viability ([23]; first compound 2.53 µM): 0.347; relative viability ([23]; first compound 8 µM): 0.422

Reference: the supplement of paper PMC10307832
